Test results: patent US8173694B2, “Therapeutic agent” (Pentraxin Therapeutics Limited, priority 2001, dated 2012)

Legend:
isolated pure human SAP = isolated pure human SAP (Homo sapiens, UniProt P02743); assay: Size exclusion chromatography of isolated pure SAP mixed with drug; format: binding; conditions: for Elution volume / Molecular assembly: SAP
Text: SAP is a pentamer with 5 identical non-covalently associated protomers each bearing a single calcium dependent ligand binding site on one planar face, the binding (B) face, of the molecule (9). In the absence of calcium, human SAP forms stable decameric dimers, probably via A-face to A-face interactions (11). In the presence of calcium, isolated human SAP rapidly aggregates and precipitates, as a result of molecular lattice formation due to binding of the exposed carboxylate of the Glu167 residue on one SAP molecule by the calcium dependent ligand binding site of another SAP molecule (12,13). This autoaggregation of SAP is inhibited by other ligands to which SAP binds, and all the present inhibitors of SAP binding to amyloid fibrils were active in this respect. However we show here that the greater potency of (R)-1-[6-(R)-2-Carboxy-pyrrolidin-1-yl]-6-oxo-hexanoyl]pyrrolidine-2-carboxylic acid and related compounds, as inhibitors of SAP binding to amyloid fibrils in vitro, results from their capacity to cross link pairs of SAP molecules. The palindromic structure of (R)-1-[6-(R)-2-Carboxy-pyrrolidin-1-yl]-6-oxo-hexanoyl]pyrrolidine-2-carboxylic acid enables it to not only block the ligand binding sites on individual SAP protomers, but could also cross link pairs of pentameric SAP molecules to form B-B face to face decameric dimers.
C-reactive protein (CRP) is a pentraxin closely related to SAP. Samples of isolated pure human SAP or CRP were mixed with (R)-1-[6-(R)-2-Carboxy-pyrrolidin-1-yl]-6-oxo-hexanoyl]pyrrolidine-2-carboxylic acid at the molar ratios shown, with respect to pentraxin protomer, in physiological ionic strength Tris buffered saline pH 8.0, and analysed by size exclusion chromatography precisely as described previously (14). The mixtures and the column eluants contained either no calcium ions or 2 mM calcium, and the concentrations of drug appropriate to maintain the molar ratios indicated above. In the absence of a specific ligand to which it can bind, purified human SAP is insoluble in the presence of calcium and elutes as high molecular weight aggregates in the void volume of the column (14). However in the absence of calcium and ligand, isolated SAP alone forms stable decamers, providing an excellent marker for the elution volume of this molecular assembly (14). Human CRP is a stable pentamer either in the presence or absence of calcium and thus provides a robust marker for the elution position of that molecular form (14).

CRP in whole human serum = target: T1, CRP in whole human serum (Homo sapiens, UniProt P02741); assay: Size exclusion chromatography of whole human serum mixed with drug: CRP; format: binding
T1 construct: Aliquots of a single pool of whole normal human serum, containing SAP and CRP; from tissue; host or cells: pooled whole normal human serum
T1 sequence (P02741 19-224): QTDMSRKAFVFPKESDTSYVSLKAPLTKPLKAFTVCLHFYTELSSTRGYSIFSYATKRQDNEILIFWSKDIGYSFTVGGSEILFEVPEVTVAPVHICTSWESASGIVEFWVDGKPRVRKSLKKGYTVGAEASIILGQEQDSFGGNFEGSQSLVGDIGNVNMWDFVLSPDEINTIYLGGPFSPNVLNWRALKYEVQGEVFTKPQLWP
Experimental: Aliquots of a single pool of whole normal human serum, containing SAP and CRP, were mixed with (R)-1-[6-(R)-2-Carboxy-pyrrolidin-1-yl]-6-oxo-hexanoyl]pyrrolidine-2-carboxylic acid at the molar ratios shown, with respect to pentraxin protomer, and analysed by size exclusion chromatography precisely as described previously (14). The mixtures and the column eluants contained either no calcium ions or 2 mM calcium, and the concentrations of drug appropriate to maintain the molar ratios indicated above. SAP in whole serum is a stable soluble pentameric assembly of protomers, stabilised by the presence of the normal high concentration of serum albumin. However as SAP is separated from serum albumin during gel filtration with a calcium containing eluant, the SAP autoaggregates and elutes entirely as high molecular weight polymers in the void volume of the column. This is because, in the absence of a specific ligand to which it can bind, isolated human SAP is insoluble in the presence of calcium (14). However in the absence of calcium, where no ligand binding or autoaggregation can occur, SAP forms stable decamers, providing an excellent marker for the elution volume of this molecular assembly (14). Human CRP is a stable pentamer either in the presence or absence of calcium and thus provides a robust marker for the elution position of that molecular form (14).

[1] = Metabolism, excretion and oral bioavailability in mice; format: in vivo, mouse
[2] = drug:protein 1:1, calcium present
[3] = drug:protein 10:1, calcium present
[4] = drug:protein 128:1, calcium present
[5] = drug:protein 100:1, calcium present

Chain of isolated pure human SAP (P02743 20-223): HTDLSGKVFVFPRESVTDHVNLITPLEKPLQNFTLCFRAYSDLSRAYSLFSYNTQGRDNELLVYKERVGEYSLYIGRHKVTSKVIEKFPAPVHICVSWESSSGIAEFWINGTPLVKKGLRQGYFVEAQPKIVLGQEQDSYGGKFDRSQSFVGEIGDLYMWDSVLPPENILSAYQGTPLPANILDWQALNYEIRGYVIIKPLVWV

Molecular assembly of isolated SAP by gel filtration (isolated pure human SAP; 128 fold or greater molar excess of drug): single pentameric form | Elution volume (isolated pure human SAP; [2]): 10.97 mL | Molecular assembly (isolated pure human SAP; [2]): Decamer | Elution volume (isolated pure human SAP; [3]): 10.97 mL | Molecular assembly (isolated pure human SAP; [3]): Decamer | Elution volume (isolated pure human SAP; [4]): 12.55 mL | Molecular assembly (isolated pure human SAP; [4]): Pentamer | Molecular assembly of isolated SAP by gel filtration (isolated pure human SAP; ratios between equimolar and 100 fold molar excess of drug to SAP protomers): all the SAP is decameric | Elution volume (CRP in whole human serum; [2]): 12.0 to 12.5 mL | Molecular assembly (CRP in whole human serum; [2]): Pentamer | Elution volume (CRP in whole human serum; [3]): 12.0 to 12.5 mL | Molecular assembly (CRP in whole human serum; [3]): Pentamer | Elution volume (CRP in whole human serum; [5]): 12.0 to 12.5 mL | Molecular assembly (CRP in whole human serum; [5]): Pentamer | Metabolism [1]: not metabolised | Oral bioavailability [1]: very limited oral bioavailability
Compound: O=C(O)[C@H]1CCCN1C(=O)CCCCC(=O)N1CCC[C@@H]1C(=O)O [(R)-1-[6-(R)-2-Carboxy-pyrrolidin-1-yl]-6-oxo-hexanoyl]pyrrolidine-2-carboxylic acid]
Excretion [1]: very rapidly excreted, predominantly in the urine, with a small amount in the bile
